Test results as given in patent publication US10556945B2, “Antagonist antibodies directed against calcitonin gene-related peptide and methods using same” (Teva Pharmaceuticals International GmbH, priority 2014, dated 2020).
Marks after values point to notes of the source that are not given here.

Key:
[1] = tested on: middle meningeal artery (MMA) dilation evoked by electrical field stimulation; assay: Dural artery (closed cranial window) assay; format: in vivo, rat
Protocol: Closed Cranial Window Model: The purpose of this experiment was to determine the acute effect of anti-CGRP antagonist antibodies and compare it with the acute effect of the CGRP receptor antagonist BIBN4096BS. Experiments were carried out as previously described (Williamson et al., Cephalalgia 17(4):518-24 (1997)) with the following modifications. Sprague Dawley rats (300-400 g) were anesthetized with 70 mg/kg i.p. pentobarbital. Anesthesia was maintained with 20 mg/kg/hr i.v. pentobarbital. Rats were cannulated through the jugular vein for delivery of all drugs. Blood pressure was monitored with a probe (mikro-tip catheter, Millar Instruments) threaded through the femoral artery into the abdominal aorta. The rats were tracheotomized and breathing rate was maintained at 75 breaths per minute at a volume of 3.5 mL. After fixating the head in a stereotactic instrument and removing the scalp, a 2×6 mm window in the left parietal area just lateral to the sagittal suture was made by thinning the bone with a dental drill. Using a micromanipulator, a platinum bipolar electrode was lowered onto the surface and covered with heavy mineral oil. Lateral to the electrode window another window of 5×6 mm was created and filled with heavy mineral oil through which the diameter of a branch of the middle meningeal artery (MMA) was continuously monitored with a CCD camera and a video dimension analyzer (Living Systems). The rats were rested for no less than 45 minutes after the preparation. A baseline response to electrical stimulation was established (15 V, 10 hz, 0.5 ms pulses, 30 seconds) and then rats were dosed i.v. with experimental compound (10 mg/kg mu7E9, 300 μg/kg BIBN4096BS or PBS 0.01% Tween 20). Additional electrical stimulations were done at 5 (BIBN4096BS), 30, 60, 90 and 120 minutes after dosing. All data was recorded using chart software (ADInstruments).
The purpose of this experiment was to determine if the anti CGRP antibody could still block electrically stimulated MMA dilation 7 days after dosing. Preparation of the rats was identical to the above described acute experiment (Example 6) with the following exceptions. […] It was impossible to establish a baseline dilation response to electrical stimulation prior to dosing as in the acute experiment so the antibody groups were compared to dilation of the MMA in a vehicle (PBS, 0.01% Tween 20) dosed control group. After the rats were allowed to rest for no less than 45 minutes the dura was electrically stimulated at 30 minute intervals. Stimulations were at 2.5V, 5V, 10V, 15V and 20V, all at 10 Hz, 0.5 ms pulses for 30 seconds.

[2] = tested on: CGRP activity (skin blood flow after saphenous nerve stimulation); assay: Skin vasodilatation induced by stimulation of rat saphenous nerve; format: in vivo; settings: for blood flow increase stimulated by electronic pulses on saphenous nerve: compared to vehicle
Protocol: To test antagonist activity of anti-CGRP antibodies, effect of the antibodies on skin vasodilatation by stimulation of rat saphenous nerve was tested using a rat model described previously. Escott et al., Br. J. Pharmacol. 110:772-776, 1993. In this rat model, electrical stimulation of saphenous nerve induces release of CGRP from nerve endings, resulting in an increase in skin blood flow. Blood flow in the foot skin of male Sprague Dawley rats (170-300 g, from Charles River Hollister) was measured after saphenous nerve stimulation. Rats were maintained under anesthesia with 2% isoflurane. Bretylium tosylate (30 mg/kg, administered i.v.) was given at the beginning of the experiment to minimize vasoconstriction due to the concomitant stimulation of sympathetic fibers of the saphenous nerve. Body temperature was maintained at 37° C. by the use of a rectal probe thermostatically connected to a temperature controlled heating pad. Compounds including antibodies, positive control (CGRP 8-37), and vehicle (PBS, 0.01% Tween 20) were given intravenously through the right femoral vein, except for the experiment shown in FIG. 3, the test compound and the control were injected through tail vein, and for experiments shown in FIGS. 2A and 2B, antibodies 4901 and 7D11 were injected intraperitoneally (IP). Positive control compound CGRP 8-37 (vasodilatation antagonist), due to its short half-life, was given 3-5 min before nerve stimulation at 400 nmol/kg (200 μl). Tan et al., Clin. Sci. 89:656-73, 1995. The antibodies were given in different doses (1 mg/kg, 2.5 mg/kg, 5 mg/kg, 10 mg/kg, and 25 mg/kg).
For experiments shown in FIGS. 2A and 2B, antibody 4901 (25 mg/kg), antibody 7D11 (25 mg/kg), or vehicle control (PBS with 0.01% Tween 20) was administered intraperitoneally (IP) 72 hours before the electrical pulse stimulation. For experiment shown in FIG. 3, antibody 4901 (1 mg/kg, 2.5 mg/kg, 5 mg/kg, or 25 mg/kg) or vehicle control (PBS with 0.01% Tween 20) was administered intravenously 24 hours before the electrical pulse stimulation. After administration of the antibodies or vehicle control, the saphenous nerve of the right hindlimb was exposed surgically, cut proximally and covered with plastic wrap to prevent drying. A laser Doppler probe was placed over the medio-dorsal side of the hindpaw skin, which is the region innervated by the saphenous nerve. Skin blood flow, measured as blood cell flux, was monitored with a laser Doppler flow meter. When a stable base-line flux (less than 5% variation) was established for at least 5 min, the nerve was placed over platinum bipolar electrodes and electrically stimulated with 60 pulses (2 Hz, 10 V, 1 ms, for 30 sec) and then again 20 minutes later. Cumulative change in skin blood flow was estimated by the area under the flux-time curve (AUC, which is equal to change in flux multiplied by change in time) for each flux response to electrical pulse stimulation. The average of the blood flow response to the two stimulations was taken. Animals were kept under anesthesia for a period of one to three hours.
For experiments shown in FIGS. 4A and 4B, saphenous nerve was exposed surgically before antibody administration. The saphenous nerve of the right hindlimb was exposed surgically, cut proximally and covered with plastic wrap to prevent drying. […] Skin blood flow, measured as blood cell flux, was monitored with a laser Doppler flow meter. […]

[3] = tested on: chronic migraine; assay: Clinical study of antibody G1 in chronic migraine
[4] = molecular target: T1, rat α-CGRP (Rattus norvegicus, UniProt P01256); assay: Biacore affinity of antibody G1 and variant Fabs to rat α-CGRP; format: binding; settings: 37° C.; Fab; screening mode unless underlined
T1 construct: 1-37 of rat α-CGRP (WT); purchased GenScript Corporation or Global Peptide Services (custom order); host or cells: synthetic peptide
T1 sequence (P01256 83-119 limits assumed): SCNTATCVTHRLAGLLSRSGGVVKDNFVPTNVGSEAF
Protocol: Biacore assay for affinity determination. […] All Biacore assays were conducted in HBS-EP running buffer (10 mM HEPES pH 7.4, 150 mM NaCl, 3 mM EDTA, 0.005% v/v polysorbate P20). CGRP surfaces were prepared by diluting the N-biotinylated CGRP to a concentration of less than 0.001 mg/mL into HBS-EP buffer and injecting it across the SA sensor chip using variable contact times. Low capacity surfaces, corresponding to capture levels <50 response units (RU) were used for high-resolution kinetic studies, whereas high capacity surfaces (about 800 RU of captured CGRP) were used for concentration studies, screening, and solution affinity determinations. […] Samples were typically injected for 1 minute at 100 μL/min and dissociation times of at least 10 minutes were allowed. After each binding cycle, surfaces were regenerated with 25 mM NaOH in 25% v/v ethanol, which was tolerated over hundreds of cycles. […]
High-resolution analysis of binding interactions with extremely slow offrates. […] The association rate constant (kon) was determined by injecting a 2-fold titration series (in duplicate) spanning 550 nM-1 nM for 30 sec at 100 uL/min and allowing only a 30 sec dissociation phase. The dissociation rate constant (koff) was determined by injecting three concentrations (high, medium, and low) of the same titration series in duplicate for 30 sec and allowing a 2-hour dissociation phase. […]

[5] = 900 mg group (n = 85), Change from Baseline to Month 1
[6] = 900 mg group (n = 85), Change from Baseline to Month 2
[7] = 900 mg group (n = 85), Change from Baseline to Month 3
[8] = 675/225 mg group (n = 87), Change from Baseline to Month 1
[9] = 675/225 mg group (n = 87), Change from Baseline to Month 2
[10] = 675/225 mg group (n = 87), Change from Baseline to Month 3

NCCCC[C@H](NC(=O)[C@@H](Cc1cc(Br)c(O)c(Br)c1)NC(=O)N1CCC(N2Cc3ccccc3NC2=O)CC1)C(=O)N1CCN(c2ccncc2)CC1 [BIBN4096BS]
time after dosing within which MMA dilation is blocked ([1]; 300 μg/kg i.v.): ≤ 5 min | time by which the effect has completely disappeared ([1]; 300 μg/kg i.v.): ≤ 90 min | MMA dilation evoked by electrical field stimulation ([1]; 300 μg/kg i.v., acute): blocks

G1: anti-CGRP antagonist antibody produced by expression vectors ATCC PTA-6867 and PTA-6866; VH SEQ ID NO:1, VL SEQ ID NO:2; modified human IgG2 [Clone G1]
blood flow increase stimulated by electronic pulses on saphenous nerve ([2]; 1 mg/kg i.v., stimulation at 90 min): significantly inhibited | blood flow increase stimulated by electronic pulses on saphenous nerve ([2]; 10 mg/kg i.v., stimulation at 90 and 120 minutes): significantly inhibited | blood flow increases in the dorso-medial hindpaw skin evoked by saphenous nerve stimulation ([2]; 10 mg/kg or 3 mg/kg i.v., 24 hours or 7 days prior to stimulation, vs vehicle): significantly inhibited | EC50 at 24 hours (dose required for 50% maximal effect) ([2]; i.v. 24 hours before stimulation, curve fit): 1.3 mg/kg | EC50 at 7 days (dose required for 50% maximal effect) ([2]; i.v. 7 days before stimulation, curve fit): 0.8 mg/kg | MMA dilation evoked by electrical stimulation ([1]; 10 mg/kg and 3 mg/kg i.v., 7 days prior, 10 to 20 volts, vs vehicle): significantly blocked | Days using acute medications, change from baseline, mean (SE) [3, 5]: −5.4 (0.7)** Days | Headache hours, change from baseline, mean (SE) [3, 5]: −56.8 (7.3)^+ hours | M/S Headache Days (days with moderate to severe headaches), change from baseline, mean (SE) [3, 5]: −5.7 (0.6)^+ Days | Migraine Days, change from baseline, mean (SE) [3, 5]: −6.3 (0.7)^+ Days | Days using acute medications, change from baseline, mean (SE) [3, 6]: −5.8 (0.7) Days | Headache hours, change from baseline, mean (SE) [3, 6]: −66.2 (8.1)^+ hours | M/S Headache Days (days with moderate to severe headaches), change from baseline, mean (SE) [3, 6]: −5.9 (0.6) Days | Migraine Days, change from baseline, mean (SE) [3, 6]: −6.7 (0.7)^ Days | Headache hours, change from baseline, mean (SE) [3, 7]: −67.5 (8.6)** hours | Migraine Days, change from baseline, mean (SE) [3, 7]: −7.1 (0.8)* Days | Subjects with >50% Decrease in M/S Headache days ([3]; 900 mg group, Month 1): 47 (55%)^+ N (%) | Subjects with >75% Decrease in M/S Headache days ([3]; 900 mg group, Month 1): 28 (33%)^+ N (%) | Subjects with >50% Decrease in M/S Headache days ([3]; 900 mg group, Month 2): 47 (55%)* N (%) | Subjects with >75% Decrease in M/S Headache days ([3]; 900 mg group, Month 2): 26 (31%) N (%) | Subjects with >50% Decrease in M/S Headache days ([3]; 900 mg group, Month 3): 47 (55%)^+ N (%) | Subjects with >75% Decrease in M/S Headache days ([3]; 900 mg group, Month 3): 27 (32%)* N (%) | Days using acute medications, change from baseline, mean (SE) [3, 8]: −5.3 (0.7)* Days | Headache hours, change from baseline, mean (SE) [3, 8]: −44.1 (7.3)** hours | M/S Headache Days (days with moderate to severe headaches), change from baseline, mean (SE) [3, 8]: −4.9 (0.6)** Days | Days using acute medications, change from baseline, mean (SE) [3, 9]: −6.6 (0.7)* Days | Headache hours, change from baseline, mean (SE) [3, 9]: −58.3 (8.1)* hours | M/S Headache Days (days with moderate to severe headaches), change from baseline, mean (SE) [3, 9]: −5.8 (0.6) Days | Migraine Days, change from baseline, mean (SE) [3, 9]: −6.6 (0.7) Days | Days using acute medications, change from baseline, mean (SE) [3, 10]: −6.6 (0.7)* Days | Headache hours, change from baseline, mean (SE) [3, 10]: −59.8 (8.6)* hours | M/S Headache Days (days with moderate to severe headaches), change from baseline, mean (SE) [3, 10]: −6.0 (0.7)* Days | Migraine Days, change from baseline, mean (SE) [3, 10]: −6.8 (0.8) Days | Subjects with >50% Decrease in M/S Headache days ([3]; 675/225 mg group, Month 1): 36 (41%)* N (%) | Subjects with >75% Decrease in M/S Headache days ([3]; 675/225 mg group, Month 1): 19 (22%)** N (%) | Subjects with >50% Decrease in M/S Headache days ([3]; 675/225 mg group, Month 2): 42 (48%) N (%) | Subjects with >75% Decrease in M/S Headache days ([3]; 675/225 mg group, Month 2): 26 (30%)* N (%) | Subjects with >50% Decrease in M/S Headache days ([3]; 675/225 mg group, Month 3): 46 (53%)** N (%) | Subjects with >75% Decrease in M/S Headache days ([3]; 675/225 mg group, Month 3): 25 (29%)* N (%) | Average number of headache hours at visits 2, 3 and 4 ([3]; both treatment groups vs placebo): significant decrease | number of headache hours in subjects using prevention medications ([3]; e.g. topiramate and amitriptyline or propranolol, relative to a placebo group): significant decrease

B1: M84: G1 variant: L1 R28N T30V; L2 A51H L56T; H2 E54N A57N; HC-FW3 L99T A100V (antibody, V domains shown)
VH: EVQLVESGGGLVQPGGSLRLSCAASGFTFSNYWISWVRQAPGKGLEWVAEIRSNSDNSATHYAEAVKGRFTISRDNAKNSLYLQMNSLRAEDTAVYYCTVYFDYGLAIQNYWGQGTLVTVSS
VL: EIVLTQSPATLSLSPGERATLSCKASKNVVTYVSWYQQKPGQAPRLLIYGHSNRYTGIPARFSGSGSGTDFTLTISSLEPEDFAVYYCSQSYNYPYTFGQGTKLEIK
α-rat koff [4]: 0.0176 s⁻¹
